Experimental data: patent publication US12186283B2, “Bismuth-thiol compositions and methods of use” (Microbion Corporation, priority 2018, dated 2025)

Key:
[1] = test system: Burkholderia spp. (B. cepacia complex); assay: MIC against CF isolates (Example 5); assay type: cell-based; settings: Table 4A
[2] = test system: E. coli ATCC 25922; settings: control strain ATCC 25922 E. coli; per CLSI M100-S24 or provided by Microbion; cited from earlier work
[3] = test system: S. aureus ATCC 29213; settings: control strain ATCC 29213 S. aureus; per CLSI M100-S24 or provided by Microbion; cited from earlier work
[4] = test system: S. aureus ATCC 29213; assay: Broth microdilution MIC, ATCC QC organism (Example 12); assay type: cell-based, Staphylococcus aureus; settings: S. aureus ATCC 29213, QC organism
Experimental: The in vitro activity of BisEDT and two additional bismuth-thiol investigational agents (MB-2B and MB-6) was determined for isolates of Escherichia coli, Klebsiella pneumoniae, Pseudomonas aeruginosa and Acinetobacter baumannii characterized for extended-spectrum β-lactamases (ESBL) and/or carbapenem resistance. In addition, vancomycin-intermediate Staphylococcus aureus (VISA) were evaluated. The majority of the isolates tested in the current study were multidrug-resistant (MDR) as defined by resistance to at least three different antibiotic classes. Susceptibility to the investigational compounds and relevant comparators was determined by broth microdilution conducted in accordance with guidelines from the Clinical and Laboratory Standards Institute (CLSI; 2,3).

[5] = test system: S. aureus ATCC 29213; settings: S. aureus ATCC 29213, QC organism; cited from earlier work
[6] = test system: vancomycin-intermediate Staphylococcus aureus (VISA); assay: Broth microdilution MIC (Example 12)
[7] = test system: Escherichia coli; settings: E. coli ATCC 25922, QC organism; cited from earlier work
[8] = test system: Pseudomonas aeruginosa; settings: P. aeruginosa ATCC 27853, QC organism; cited from earlier work
[9] = test system: Escherichia coli; assay: Broth microdilution MIC (Example 12)
[10] = test system: Klebsiella pneumoniae; assay: Broth microdilution MIC (Example 12)
[11] = test system: Pseudomonas aeruginosa; assay: Broth microdilution MIC (Example 12)
[12] = test system: Acinetobacter baumannii; assay: Broth microdilution MIC (Example 12)
[13] = Staphylococcus aureus NRS 1 (hVISA)
[14] = Staphylococcus aureus NRS 24 (hVISA)

NCC[C@H](O)C(=O)N[C@@H]1C[C@H](N)[C@@H](O[C@H]2O[C@H](CN)[C@@H](O)[C@H](O)[C@H]2O)[C@H](O)[C@H]1O[C@H]1O[C@H](CO)[C@@H](O)[C@H](N)[C@H]1O [Amikacin]
1 to 2 µg/mL: Expected MIC: goal [2]
> 64 µg/mL: MIC ([1]; strain AU197, B. cenocepacia (B cepacia complex)) | MIC ([1]; strain BC5b, B. multivorans (B cepacia complex)) | MIC ([1]; strain BC15, B. cenocepacia (B cepacia complex)) | MIC ([1]; strain BC17, B. cepacia (B cepacia complex))
0.5 to 4 µg/mL: Expected MIC: acceptable range [2]
1 to 4 µg/mL: Expected MIC: acceptable range [3]
2 µg/mL: Expected MIC: goal [3]

CCC[C@@H]1C[C@@H](C(=O)N[C@@H]([C@H]2O[C@H](SC)[C@H](O)[C@@H](O)[C@H]2O)[C@H](C)Cl)N(C)C1 [CLI]
(0.06-0.25) μg/mL: MIC, QC range [5]
0.25 µg/mL: MIC [4]
0.06 µg/mL: MIC ([6]; Staphylococcus aureus NRS 13)
>8 µg/mL: MIC [6, 13] | MIC ([6]; Staphylococcus aureus NRS 2) | MIC ([6]; Staphylococcus aureus NRS 3) | MIC ([6]; Staphylococcus aureus NRS 4) | MIC ([6]; Staphylococcus aureus NRS 18) | MIC ([6]; Staphylococcus aureus NRS 22) | MIC [6, 14] | MIC ([6]; Staphylococcus aureus NRS 27)

CCCCCCCCCC(=O)NC(Cc1c[nH]c2ccccc12)C(=O)NC(CC(N)=O)C(=O)NC(CC(=O)O)C(=O)NC1C(=O)NCC(=O)NC(CCCN)C(=O)NC(CC(=O)O)C(=O)NC(C)C(=O)NC(CC(=O)O)C(=O)NCC(=O)NC(CO)C(=O)NC(C(C)CC(=O)O)C(=O)NC(CC(=O)c2ccccc2N)C(=O)OC1C (centres unmarked) [DAP]
1 µg/mL: MIC [6, 13] | MIC ([6]; Staphylococcus aureus NRS 3)
2 µg/mL: MIC ([6]; Staphylococcus aureus NRS 13) | MIC ([6]; Staphylococcus aureus NRS 22)
0.25 µg/mL: MIC ([6]; Staphylococcus aureus NRS 2) | MIC ([6]; Staphylococcus aureus NRS 27)
0.5 µg/mL: MIC [4] | MIC ([6]; Staphylococcus aureus NRS 4) | MIC ([6]; Staphylococcus aureus NRS 18) | MIC [6, 14]
(0.12-1) μg/mL: MIC, QC range [5]

C[C@H]1COc2c(N3CCN(C)CC3)c(F)cc3c(=O)c(C(=O)O)cn1c23 [LVX]
>8 µg/mL: MIC ([9]; Escherichia coli ATCC BAA-2471, NDM) | MIC ([9]; Escherichia coli CDC 435, NDM) | MIC ([9]; Escherichia coli CDC 451, KPC) | MIC ([9]; Escherichia coli CDC 503, ESBL/NDM) | MIC ([10]; K. pneumoniae ATCC BAA-1705, QC organism) | MIC ([10]; Klebsiella pneumoniae ATCC BAA-1705, ESBL/KPC) | MIC ([10]; Klebsiella pneumoniae CDC 115, ESBL/KPC) | MIC ([10]; Klebsiella pneumoniae CDC 120, ESBL/KPC) | MIC ([10]; Klebsiella pneumoniae CDC 129, ESBL/KPC) | MIC ([10]; Klebsiella pneumoniae CDC 135, ESBL/VIM) | MIC ([10]; Klebsiella pneumoniae CDC 138, ESBL/NDM) | MIC ([11]; Pseudomonas aeruginosa CDC 231, KPC/OXA) | MIC ([11]; Pseudomonas aeruginosa CDC 246, NDM/OXA) | MIC ([11]; Pseudomonas aeruginosa CDC 250, NDM/OXA) | MIC ([11]; Pseudomonas aeruginosa CDC 457, VIM) | MIC ([11]; Pseudomonas aeruginosa CDC 518, KPC/AmpC) | MIC ([12]; Acinetobacter baumannii CDC 273, ESBL/OXA) | MIC ([6]; Staphylococcus aureus NRS 3) | MIC [6, 14]
8 µg/mL: MIC ([9]; Escherichia coli CDC 118, ESBL/NDM) | MIC ([9]; Escherichia coli MMX 5745, KPC) | MIC ([9]; Escherichia coli MMX 5755, ESBL) | MIC ([9]; Escherichia coli MMX 5758, ESBL) | MIC ([11]; Pseudomonas aeruginosa CDC 230, VIM/OXA) | MIC ([11]; Pseudomonas aeruginosa CDC 241, IMP/OXA) | MIC ([11]; Pseudomonas aeruginosa CDC 439, IMP) | MIC ([11]; Pseudomonas aeruginosa CDC 444, VIM) | MIC ([12]; Acinetobacter baumannii CDC 274, ESBL/OXA) | MIC ([12]; Acinetobacter baumannii CDC 277, ESBL/OXA) | MIC ([12]; Acinetobacter baumannii CDC 284, ESBL/OXA) | MIC ([12]; Acinetobacter baumannii CDC 307, OXA) | MIC ([6]; Staphylococcus aureus NRS 22) | MIC ([6]; Staphylococcus aureus NRS 27)
0.25 µg/mL: MIC ([11]; Pseudomonas aeruginosa CDC 516, KPC/AmpC)
(0.008-0.06) μg/mL: MIC, QC range [7]
≤0.008 µg/mL: MIC ([9]; E. coli ATCC 25922, QC organism) | MIC ([9]; E. coli ATCC 35218, QC organism) | MIC ([9]; Escherichia coli ATCC 35218, ESBL)
0.06 µg/mL: MIC [4]
0.12 µg/mL: MIC ([10]; Klebsiella pneumoniae MMX 9029, ESBL) | MIC ([11]; Pseudomonas aeruginosa CDC 356, KPC) | MIC ([6]; Staphylococcus aureus NRS 13)
(0.06-0.5) μg/mL: MIC, QC range [5]
0.015 µg/mL: MIC ([10]; Klebsiella pneumoniae CDC 126, ESBL/KPC)
(0.5-4) μg/mL: MIC, QC range [8]
0.5 µg/mL: MIC ([11]; P. aeruginosa ATCC 27853, QC organism)
1 µg/mL: MIC ([12]; Acinetobacter baumannii NCTC 13304, OXA)
2 µg/mL: MIC ([12]; Acinetobacter baumannii CDC 311, OXA) | MIC ([12]; Acinetobacter baumannii CDC 312, OXA) | MIC ([12]; Acinetobacter baumannii CDC 313, ESBL/OXA)
4 µg/mL: MIC ([9]; Escherichia coli CDC 114, ESBL/KPC) | MIC ([9]; Escherichia coli MMX 5756, ESBL) | MIC ([10]; Klebsiella pneumoniae CDC 112, KPC) | MIC ([10]; Klebsiella pneumoniae CDC 113, ESBL/KPC) | MIC ([10]; Klebsiella pneumoniae CDC 158, ESBL/NDM/OXA) | MIC ([12]; Acinetobacter baumannii CDC 275, ESBL/OXA) | MIC ([12]; Acinetobacter baumannii CDC 308, ESBL/OXA) | MIC [6, 13] | MIC ([6]; Staphylococcus aureus NRS 2) | MIC ([6]; Staphylococcus aureus NRS 4) | MIC ([6]; Staphylococcus aureus NRS 18)

CC(=O)NC[C@H]1CN(c2ccc(N3CCOCC3)c(F)c2)C(=O)O1 [LZD]
4 µg/mL: MIC [4] | MIC ([6]; Staphylococcus aureus NRS 2)
1 µg/mL: MIC [6, 13] | MIC ([6]; Staphylococcus aureus NRS 3) | MIC ([6]; Staphylococcus aureus NRS 4) | MIC ([6]; Staphylococcus aureus NRS 18) | MIC ([6]; Staphylococcus aureus NRS 22)
(1-4) μg/mL: MIC, QC range [5]
2 µg/mL: MIC ([6]; Staphylococcus aureus NRS 13) | MIC [6, 14] | MIC ([6]; Staphylococcus aureus NRS 27)

CN[C@H](CC(C)C)C(=O)N[C@H]1C(=O)N[C@@H](CC(N)=O)C(=O)N[C@H]2C(=O)N[C@H]3C(=O)N[C@H](C(=O)N[C@H](C(=O)O)c4cc(O)cc(O)c4-c4cc3ccc4O)[C@H](O)c3ccc(c(Cl)c3)Oc3cc2cc(c3O[C@@H]2O[C@H](CO)[C@@H](O)[C@H](O)[C@H]2O[C@H]2C[C@](C)(N)[C@H](O)[C@H](C)O2)Oc2ccc(cc2Cl)[C@H]1O [VAN]
2 µg/mL: MIC ([6]; Staphylococcus aureus NRS 13) | MIC [6, 14] | MIC ([6]; Staphylococcus aureus NRS 27)
0.5 µg/mL: MIC [4] | MIC ([6]; Staphylococcus aureus NRS 2)
4 µg/mL: MIC [6, 13] | MIC ([6]; Staphylococcus aureus NRS 4) | MIC ([6]; Staphylococcus aureus NRS 18) | MIC ([6]; Staphylococcus aureus NRS 22)
(0.5-2) μg/mL: MIC, QC range [5]
8 µg/mL: MIC ([6]; Staphylococcus aureus NRS 3)
